In ChEMBL document CHEMBL4680149, “Biological evaluation and chemoproteomics reveal potential antibacterial targets of a cajaninstilbene-acid analogue” (Eur J Med Chem, 2020):
Values after ≈ are worked out from the molar mass of the structure shown. Active and inactive are the calls of the source. The rule behind the calls is not given here.

Assays:
[1] = tested on: Staphylococcus aureus; experiment: Antibacterial activity against methicillin resistant Staphylococcus aureus ATCC 43300 persisters assessed as reduction in colony formation at 4 ug/ml incubated for 8 hrs by colony counting method; type: functional, organism-based; settings: dose 4.0 µg/ml
[2] = tested on: Staphylococcus aureus; experiment: Binding affinity to modA in Staphylococcus aureus ATCC 25923 assessed as protein labeling at 5 uM incubated for 1 hr followed by UV irradiation for 20 mins by pull down based in-gel fluorescence scanning analysis; settings: time 80.0 min
[3] = tested on: Staphylococcus aureus; experiment: (§1) Binding affinity to moaB in methicillin resistant Staphylococcus aureus ATCC 43300 assessed as protein labeling at 5 uM incubated for 1 hr followed by UV irradiation for 20 mins by pull down based in-gel fluorescence scanning analysis; settings: time 80.0 min
[4] = tested on: Staphylococcus aureus; experiment: Bacteriostatic activity against Staphylococcus aureus ATCC 25923 assessed as reduction in bacterial growth at 4 ug/ml incubated for 16 hrs by Kirby-Bauer test method; type: functional, organism-based; settings: dose 4.0 µg/ml
[5] = tested on: Staphylococcus aureus; experiment: Binding affinity to moaB in Staphylococcus aureus ATCC 25923 assessed as protein labeling at 5 uM incubated for 1 hr followed by UV irradiation for 20 mins by pull down based in-gel fluorescence scanning analysis; settings: time 80.0 min
[6] = tested on: Staphylococcus aureus; experiment: as §1, with “modA” for “moaB”, “hr in presence of (E)-6-(2-fluorostyryl)-2,4-dihydroxy-3-(3-methylbut-2-enyl)benzoic acid” for “hr”; settings: time 80.0 min
[7] = tested on: Staphylococcus aureus; experiment: (§2) Binding affinity to rpsH in Staphylococcus aureus ATCC 25923 assessed as protein labeling at 5 uM incubated for 1 hr in presence of (E)-6-(2-fluorostyryl)-2,4-dihydroxy-3-(3-methylbut-2-enyl)benzoic acid followed by UV irradiation for 20 mins by pull down based in-gel fluorescence scanning analysis; settings: time 80.0 min
[8] = tested on: Staphylococcus aureus; experiment: Antibacterial activity against Staphylococcus aureus ATCC 25923 assessed as reduction in bacterial growth incubated for 16 hrs by broth microdilution method; type: functional
[9] = tested on: Staphylococcus aureus; experiment: (§3) Binding affinity to YidC in methicillin resistant Staphylococcus aureus ATCC 43300 assessed as protein labeling at 5 uM incubated for 1 hr in presence of (E)-6-(2-fluorostyryl)-2,4-dihydroxy-3-(3-methylbut-2-enyl)benzoic acid followed by UV irradiation for 20 mins by pull down based in-gel fluorescence scanning analysis; settings: time 80.0 min
[10] = tested on: Staphylococcus aureus; experiment: Binding affinity to YidC in Staphylococcus aureus ATCC 25923 assessed as protein labeling at 5 uM incubated for 1 hr in presence of (E)-6-(2-fluorostyryl)-2,4-dihydroxy-3-(3-methylbut-2-enyl)benzoic acid followed by UV irradiation for 20 mins by pull down based in-gel fluorescence scanning analysis; settings: time 80.0 min
[11] = tested on: Staphylococcus aureus; experiment: as §3, with “moaB” for “YidC”; settings: time 80.0 min
[12] = tested on: Staphylococcus aureus; experiment: as §3, with “rpsH” for “YidC”; settings: time 80.0 min
[13] = tested on: Staphylococcus aureus; experiment: Binding affinity to YidC in methicillin resistant Staphylococcus aureus ATCC 43300 assessed as protein labeling at 5 uM incubated for 1 hr followed by UV irradiation for 20 mins by pull down based in-gel fluorescence scanning analysis; settings: time 80.0 min
[14] = tested on: Staphylococcus aureus; experiment: Binding affinity to moaB in Staphylococcus aureus ATCC 25923 assessed as protein labeling at 5 uM incubated for 1 hr in presence of (E)-6-(2-fluorostyryl)-2,4-dihydroxy-3-(3-methylbut-2-enyl)benzoic acid followed by UV irradiation for 20 mins by pull down based in-gel fluorescence scanning analysis; settings: time 80.0 min
[15] = tested on: Staphylococcus aureus; experiment: Binding affinity to HsIU/ClpY in Staphylococcus aureus ATCC 25923 assessed as protein labeling at 5 uM incubated for 1 hr followed by UV irradiation for 20 mins by pull down based in-gel fluorescence scanning analysis; settings: time 80.0 min
[16] = tested on: Staphylococcus aureus; experiment: Binding affinity to PgsA in Staphylococcus aureus ATCC 25923 assessed as protein labeling at 5 uM incubated for 1 hr in presence of (E)-6-(2-fluorostyryl)-2,4-dihydroxy-3-(3-methylbut-2-enyl)benzoic acid followed by UV irradiation for 20 mins by pull down based in-gel fluorescence scanning analysis; settings: time 80.0 min
[17] = tested on: Staphylococcus aureus; experiment: Binding affinity to CshA in Staphylococcus aureus ATCC 25923 assessed as protein labeling at 5 uM incubated for 1 hr in presence of (E)-6-(2-fluorostyryl)-2,4-dihydroxy-3-(3-methylbut-2-enyl)benzoic acid followed by UV irradiation for 20 mins by pull down based in-gel fluorescence scanning analysis; settings: time 80.0 min
[18] = tested on: Staphylococcus aureus; experiment: Binding affinity to modA in methicillin resistant Staphylococcus aureus ATCC 43300 assessed as protein labeling at 5 uM incubated for 1 hr followed by UV irradiation for 20 mins by pull down based in-gel fluorescence scanning analysis; settings: time 80.0 min
[19] = tested on: Staphylococcus aureus; experiment: as §3, with “CshA” for “YidC”; settings: time 80.0 min
[20] = tested on: Staphylococcus aureus; experiment: Binding affinity to modA in Staphylococcus aureus ATCC 25923 assessed as protein labeling at 5 uM incubated for 1 hr in presence of (E)-6-(2-fluorostyryl)-2,4-dihydroxy-3-(3-methylbut-2-enyl)benzoic acid followed by UV irradiation for 20 mins by pull down based in-gel fluorescence scanning analysis; settings: time 80.0 min
[21] = tested on: Staphylococcus aureus; experiment: Binding affinity to rpsH in methicillin resistant Staphylococcus aureus ATCC 43300 assessed as protein labeling at 5 uM incubated for 1 hr followed by UV irradiation for 20 mins by pull down based in-gel fluorescence scanning analysis; settings: time 80.0 min
[22] = tested on: Staphylococcus aureus; experiment: Binding affinity to CshA in Staphylococcus aureus ATCC 25923 assessed as protein labeling at 5 uM incubated for 1 hr followed by UV irradiation for 20 mins by pull down based in-gel fluorescence scanning analysis; settings: time 80.0 min
[23] = tested on: Staphylococcus aureus; experiment: Binding affinity to His-tagged recombinant Staphylococcus aureus PgsA expressed in Escherichia coli Rosetta DE3 at 5 uM incubated for 1 hr in presence of (E)-6-(2-fluorostyryl)-2,4-dihydroxy-3-(3-methylbut-2-enyl)benzoic acid followed by UV irradiation for 20 mins by in-gel fluorescence scanning analysis; settings: time 80.0 min
[24] = tested on: Staphylococcus aureus; experiment: as §2, with “HsIU/ClpY” for “rpsH”; settings: time 80.0 min
[25] = tested on: Staphylococcus aureus; experiment: Binding affinity to PgsA in methicillin resistant Staphylococcus aureus ATCC 43300 assessed as protein labeling at 5 uM incubated for 1 hr followed by UV irradiation for 20 mins by pull down based in-gel fluorescence scanning analysis; settings: time 80.0 min
[26] = tested on: Staphylococcus aureus; experiment: Binding affinity to HsIU/ClpY in methicillin resistant Staphylococcus aureus ATCC 43300 assessed as protein labeling at 5 uM incubated for 1 hr followed by UV irradiation for 20 mins by pull down based in-gel fluorescence scanning analysis; settings: time 80.0 min
[27] = tested on: Staphylococcus aureus; experiment: Binding affinity to PgsA in Staphylococcus aureus ATCC 25923 assessed as protein labeling at 5 uM incubated for 1 hr followed by UV irradiation for 20 mins by pull down based in-gel fluorescence scanning analysis; settings: time 80.0 min
[28] = tested on: Staphylococcus aureus; experiment: Binding affinity to CshA in methicillin resistant Staphylococcus aureus ATCC 43300 assessed as protein labeling at 5 uM incubated for 1 hr followed by UV irradiation for 20 mins by pull down based in-gel fluorescence scanning analysis; settings: time 80.0 min
[29] = tested on: Staphylococcus aureus; experiment: Binding affinity to rpsH in Staphylococcus aureus ATCC 25923 assessed as protein labeling at 5 uM incubated for 1 hr followed by UV irradiation for 20 mins by pull down based in-gel fluorescence scanning analysis; settings: time 80.0 min
[30] = tested on: Staphylococcus aureus; experiment: Binding affinity to YidC in Staphylococcus aureus ATCC 25923 assessed as protein labeling at 5 uM incubated for 1 hr followed by UV irradiation for 20 mins by pull down based in-gel fluorescence scanning analysis; settings: time 80.0 min
[31] = tested on: Staphylococcus aureus; experiment: as §3, with “HsIU/ClpY” for “YidC”; settings: time 80.0 min
[32] = tested on: Staphylococcus aureus; experiment: as §3, with “PgsA” for “YidC”; settings: time 80.0 min
[33] = tested on: Staphylococcus aureus; experiment: Antibacterial activity against methicillin resistant Staphylococcus aureus ATCC 43300 persisters assessed as reduction in colony formation at 40 ug/ml incubated for 8 hrs in presence of 50 ug/ml Ca2+ by colony counting method; type: functional, organism-based; settings: dose 40.0 µg/ml
[34] = tested on: Staphylococcus aureus; experiment: Antibacterial activity against methicillin resistant Staphylococcus aureus ATCC 43300 persisters assessed as reduction in colony formation at 40 ug/ml incubated for 8 hrs by colony counting method; type: functional, organism-based; settings: dose 40.0 µg/ml
[35] = tested on: Staphylococcus aureus; experiment: Resistance index, ratio of MIC for antibacterial activity against Staphylococcus aureus ATCC 25923 measured after 60 days of serial passage to MIC for antibacterial activity against Staphylococcus aureus ATCC25923 measured after 16 hrs; type: functional
[36] = tested on: Staphylococcus aureus; experiment: Antibacterial activity against methicillin resistant Staphylococcus aureus ATCC 43300 persisters assessed as eradication of colony formation at 2X MIC incubated for 4 hrs by colony counting method; type: functional, organism-based
[37] = tested on: RAW264.7; experiment: Cytotoxicity against mouse RAW264.7 cells assessed as reduction in cell viability incubated for 48 hrs by MTT assay; type: cell-based; settings: RAW264.7, 48 h
[38] = tested on: Staphylococcus aureus; experiment: Bacteriostatic activity against Staphylococcus aureus ATCC 25923 assessed as reduction in bacterial growth at 128 ug/ml incubated for 16 hrs by Kirby-Bauer test method; type: functional, organism-based; settings: dose 128.0 µg/ml

SMILES | Activity [2] | Activity [3] | Activity [5] | Activity [13] | Activity [15] | Activity [18] | Activity [21] | Activity [22] | Activity [25] | Activity [26] | Activity [27] | Activity [28] | Activity [29] | Activity [30] | other results
CO[C@H]1/C=C/O[C@@]2(C)Oc3c(C)c(O)c4c(O)c(c(/C=N/N5CCN(C)CC5)c(O)c4c3C2=O)NC(=O)/C(C)=C\C=C\[C@H](C)[C@H](O)[C@@H](C)[C@@H](O)[C@@H](C)[C@H](OC(C)=O)[C@@H]1C |  |  |  |  |  |  |  |  |  |  |  |  |  |  | Activity [1]: Active
C#CCCC1(CCOc2ccc(/C=C/c3cc(OC)c(CC=C(C)C)c(O)c3C(=O)O)c(F)c2)N=N1 | Active | Active | Active | Active | Active | Active | Active | Active | Active | Active | Active | Active | Active | Active | Activity [4]: Active; Activity [6]: inactive; Activity [7]: inactive; MIC [8]: 8 µg/mL (≈ 16.2 µM); Activity [9]: inactive; Activity [10]: inactive; Activity [11]: inactive; Activity [12]: inactive; Activity [14]: inactive; Activity [16]: inactive; Activity [17]: inactive; Activity [19]: inactive; Activity [20]: inactive; Activity [23]: inactive; Activity [24]: inactive; Activity [31]: inactive; Activity [32]: inactive
CCCCCCCCCC(=O)N[C@@H](Cc1c[nH]c2ccccc12)C(=O)N[C@H](CC(N)=O)C(=O)N[C@@H](CC(=O)O)C(=O)N[C@@H]1C(=O)NCC(=O)N[C@@H](CCCN)C(=O)N[C@@H](CC(=O)O)C(=O)N[C@H](C)C(=O)N[C@@H](CC(=O)O)C(=O)NCC(=O)N[C@H](CO)C(=O)N[C@@H]([C@H](C)CC(=O)O)C(=O)N[C@@H](CC(=O)c2ccccc2N)C(=O)O[C@@H]1C |  |  |  |  |  |  |  |  |  |  |  |  |  |  | Activity [33]: Active
O=C(O)c1cn(C2CC2)c2cc(N3CCNCC3)c(F)cc2c1=O [CIPROFLOXACIN] |  |  |  |  |  |  |  |  |  |  |  |  |  |  | Activity [34]: Active; Ratio [35]: 50
COc1cc(/C=C/c2ccc(C(F)(F)F)cc2)c(C(=O)O)c(O)c1CC=C(C)C |  |  |  |  |  |  |  |  |  |  |  |  |  |  | Activity [36]: Active; IC50 [37]: 50.6 µM
C#CCCC1(CCOc2ccccc2)N=N1 | inactive | inactive | inactive | inactive | inactive | inactive | inactive | inactive | inactive | inactive | inactive | inactive | inactive | inactive | Activity [38]: inactive
